Data taken from publication PMC3066128 (PLoS Biology, 2011).
Where two headings read alike, the source gives them in different places.

Columns and labels:
Ls-AChBP = Ls-AChBP (Lymnaea stagnalis, UniProt P58154); assay: biochemical; type: binding
Experimental: (§1) Competitive binding assays with ^3H-epibatidine were carried out as previously published with minor modifications (see Text S1). Electrophysiological assays were carried out using the two-electrode voltage clamp technique. The cDNA encoding human α1 GlyR was subcloned into pGEM-HE for oocyte expression with a PCR strategy and verified by sequencing. The cDNA was linearized with NheI and transcribed with the T7 mMessage mMachine kit from Ambion. The cDNA encoding the human α7 nAChR was cloned into pMXT and linearized with BamHI for transcription with the SP6 mMessage mMachine kit from Ambion. All mutants were engineered using a Quikchange method (Stratagene) and verified by sequencing. Recordings were obtained from oocytes 2–5 d after injection with 50 nl of ∼1 ng/nl RNA. […] Student's t test was used for statistical comparison of paired observations.
Human neuroblastoma cells (SH-SY5Y) stably expressing human α7 nAChR were obtained from Christian Fuhrer (Department of Neurochemistry, Brain Research Institute, University of Zurich). […] The SPA beads were allowed to settle for 2-4 h and the radioactivity was measured in a Wallac 1450 MicroBeta liquid scintillation counter.

human α7 nAChR = target: T1, human α7 nAChR (Homo sapiens, UniProt P36544); assay: biochemical; type: binding
T1 construct: expressed in transfected cells
T1 sequence (P36544 23-502): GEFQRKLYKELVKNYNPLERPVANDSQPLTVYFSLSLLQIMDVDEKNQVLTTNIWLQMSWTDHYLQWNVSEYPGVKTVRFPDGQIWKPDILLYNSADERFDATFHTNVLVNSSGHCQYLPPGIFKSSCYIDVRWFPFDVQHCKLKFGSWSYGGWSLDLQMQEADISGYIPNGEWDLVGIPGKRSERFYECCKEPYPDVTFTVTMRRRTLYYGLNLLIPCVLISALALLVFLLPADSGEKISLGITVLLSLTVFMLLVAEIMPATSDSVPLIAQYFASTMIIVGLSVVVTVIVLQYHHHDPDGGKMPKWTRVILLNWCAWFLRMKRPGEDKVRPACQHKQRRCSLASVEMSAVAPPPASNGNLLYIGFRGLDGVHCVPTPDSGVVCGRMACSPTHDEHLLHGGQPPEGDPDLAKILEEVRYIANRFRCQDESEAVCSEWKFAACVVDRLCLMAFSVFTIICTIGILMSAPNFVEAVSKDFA
Experimental: Human neuroblastoma cells (SH-SY5Y) stably expressing human α7 nAChR were obtained from Christian Fuhrer (Department of Neurochemistry, Brain Research Institute, University of Zurich). The cells were maintained in DMEM/F12 (Dulbecco's Modified Eagle Medium / Nutrient Mixture F-12) supplemented with 10% fetal calf serum (FCS), 50 IU/mL penicillin, 50 µg/mL streptomycin and 0.1 mg/ml geneticin in 5% CO2 humidified atmosphere at 37°C. Batches of cells from several passages were washed 3x with PBS, harvested and after centrifuging aliquots, the cell-pellets were stored at -80°C until use. Although there appeared to be little batch-to-batch variation, only one passage was used for the triplicate experiments as described below. […] The SPA beads were allowed to settle for 2-4 h and the radioactivity was measured in a Wallac 1450 MicroBeta liquid scintillation counter. All radioligand binding data were evaluated by a nonlinear, least-squares curve fitting procedure using Graphpad Prism (version 5.0a, GraphPad Software, Inc., San Diego, CA). […]
Frozen cell pellets with the human α7 nAChR were thawed, homogenized in ice-cold binding buffer, sonicated before use and added at 0.1 mg/ml. […] After drying the filter-plates, scintillation fluid (MicroScint, Perkin Elmer) was added and the radioactivity was measured as above.

human α7 nAChR wt = target: T2, human α7 nAChR wt (Homo sapiens, UniProt P36544); assay: Two-electrode voltage clamp, wild type α7 nAChR in Xenopus oocytes; type: cell-based; settings: co-applied with EC50 acetylcholine
T2 construct: expressed in transfected cells; host or cells: Xenopus oocytes injected with cRNA (pMXT)
T2 sequence (P36544 23-502): as above
Text: (§2) To address this question, we performed alanine-scanning mutagenesis of the homologous residues in the human GlyR or nAChR using structure-based sequence alignments with AChBP (see Figure S1). The two-electrode voltage-clamp technique was used to measure ligand potency on wild type and mutant GlyR or nAChR expressed in Xenopus oocytes. […] One of these mutants, F207A, was previously characterized in the work from Grundzinska et al..
(§3) For d-TC, previous mutagenesis studies have been carried out either on the muscle-type nAChR [1] or 5-HT3R [5],[12]. […] Both model systems either complicate the mutational analysis or make it difficult to derive conclusions that can be generalized to other CLRs. Here, we chose the human α7 nAChR to characterize the effect of homologous contact mutations on the potency of d-TC. The α7 nAChR, which is also a target of d-TC [4], is closely related to Ac-AChBP and is an attractive model system to extrapolate the results obtained from our X-ray crystal structures.
(§4) Competitive binding assays with ^3H-epibatidine were carried out as previously published with minor modifications (see Text S1). Electrophysiological assays were carried out using the two-electrode voltage clamp technique. The cDNA encoding human α1 GlyR was subcloned into pGEM-HE for oocyte expression with a PCR strategy and verified by sequencing. […]

human α7 nAChR Y93A = target: T3, human α7 nAChR Y93A (Homo sapiens, UniProt P36544, Y115A); assay: Two-electrode voltage clamp, α7 nAChR Y93A in Xenopus oocytes; type: cell-based; settings: co-applied with EC50 acetylcholine
T3 construct: expressed in transfected cells; host or cells: Xenopus oocytes injected with cRNA (pMXT)
T3 sequence (P36544 23-502 Y115A): as the sequence (P36544 23-502) above, with Y93A counted along it
Text: as §2, §3, §4

human α7 nAChR S148A = target: T4, human α7 nAChR S148A (Homo sapiens, UniProt P36544, S170A); assay: Two-electrode voltage clamp, α7 nAChR S148A in Xenopus oocytes; type: cell-based; settings: co-applied with EC50 acetylcholine
T4 construct: expressed in transfected cells; host or cells: Xenopus oocytes injected with cRNA (pMXT)
T4 sequence (P36544 23-502 S170A): as the sequence (P36544 23-502) above, with S148A counted along it
Text: as §2, §3, §4

human α7 nAChR E193A = target: T5, human α7 nAChR E193A (Homo sapiens, UniProt P36544, E215A); assay: Two-electrode voltage clamp, α7 nAChR E193A in Xenopus oocytes; type: cell-based; settings: co-applied with EC50 acetylcholine
T5 construct: expressed in transfected cells; host or cells: Xenopus oocytes injected with cRNA (pMXT)
T5 sequence (P36544 23-502 E215A): as the sequence (P36544 23-502) above, with E193A counted along it
Text: as §2, §3, §4

human α7 nAChR S36A = target: T6, human α7 nAChR S36A (Homo sapiens, UniProt P36544, S58A); assay: Two-electrode voltage clamp, α7 nAChR S36A in Xenopus oocytes; type: cell-based; settings: co-applied with EC50 acetylcholine
T6 construct: expressed in transfected cells; host or cells: Xenopus oocytes injected with cRNA (pMXT)
T6 sequence (P36544 23-502 S58A): as the sequence (P36544 23-502) above, with S36A counted along it
Text: as §2, §3, §4

human α7 nAChR W55A = target: T7, human α7 nAChR W55A (Homo sapiens, UniProt P36544, W77A); assay: Two-electrode voltage clamp, α7 nAChR W55A in Xenopus oocytes; type: cell-based; settings: co-applied with EC50 acetylcholine
T7 construct: expressed in transfected cells; host or cells: Xenopus oocytes injected with cRNA (pMXT)
T7 sequence (P36544 23-502 W77A): as the sequence (P36544 23-502) above, with W55A counted along it
Text: as §2, §3, §4

human α7 nAChR Q117A = target: T8, human α7 nAChR Q117A (Homo sapiens, UniProt P36544, Q139A); assay: Two-electrode voltage clamp, α7 nAChR Q117A in Xenopus oocytes; type: cell-based; settings: co-applied with EC50 acetylcholine
T8 construct: expressed in transfected cells; host or cells: Xenopus oocytes injected with cRNA (pMXT)
T8 sequence (P36544 23-502 Q139A): as the sequence (P36544 23-502) above, with Q117A counted along it
Text: as §2, §3, §4

human α7 nAChR L119A = target: T9, human α7 nAChR L119A (Homo sapiens, UniProt P36544, L141A); assay: Two-electrode voltage clamp, α7 nAChR L119A in Xenopus oocytes; type: cell-based; settings: co-applied with EC50 acetylcholine
T9 construct: expressed in transfected cells; host or cells: Xenopus oocytes injected with cRNA (pMXT)
T9 sequence (P36544 23-502 L141A): as the sequence (P36544 23-502) above, with L119A counted along it
Text: as §2, §3, §4

human α7 nAChR G167A = target: T10, human α7 nAChR G167A (Homo sapiens, UniProt P36544, G189A); assay: Two-electrode voltage clamp, α7 nAChR G167A in Xenopus oocytes; type: cell-based; settings: co-applied with EC50 acetylcholine
T10 construct: expressed in transfected cells; host or cells: Xenopus oocytes injected with cRNA (pMXT)
T10 sequence (P36544 23-502 G189A): as the sequence (P36544 23-502) above, with G167A counted along it
Text: as §2, §3, §4

mouse 5-HT3R = target: mouse 5-HT3R; parameters: method as in PMID 10026168; settings: taken from previous study; cited from earlier work
muscle-type nAChR = test system: muscle-type nAChR; parameters: method as in PMID 8415719; settings: heteropentameric muscle-type nAChR; cited from earlier work
5-HT3R = settings: human versus mouse 5-HT3R; cited from earlier work
human α1 GlyR A101F = human α1 GlyR A101F (Homo sapiens, UniProt P23415, A129F); assay: cell-based; settings: for mut/wt: IC50 α1 GlyR A101F over wt
Chain of human α1 GlyR A101F (P23415 29-457 A129F): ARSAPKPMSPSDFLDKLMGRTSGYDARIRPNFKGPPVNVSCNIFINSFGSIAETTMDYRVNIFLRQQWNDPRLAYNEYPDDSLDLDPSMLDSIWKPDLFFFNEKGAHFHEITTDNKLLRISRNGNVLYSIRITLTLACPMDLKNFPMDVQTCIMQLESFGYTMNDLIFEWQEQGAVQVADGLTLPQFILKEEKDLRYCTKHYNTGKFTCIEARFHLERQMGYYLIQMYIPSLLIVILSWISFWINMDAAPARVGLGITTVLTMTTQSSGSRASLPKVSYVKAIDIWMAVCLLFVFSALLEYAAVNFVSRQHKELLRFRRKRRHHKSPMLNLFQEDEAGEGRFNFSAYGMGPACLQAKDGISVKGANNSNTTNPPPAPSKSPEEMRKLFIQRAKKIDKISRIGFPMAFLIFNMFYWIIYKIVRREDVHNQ
Experimental: as §2, §1

human α1 GlyR F207A = human α1 GlyR F207A (Homo sapiens, UniProt P23415, F235A); assay: cell-based
Chain of human α1 GlyR F207A (P23415 29-457 F235A): as the sequence (P23415 29-457 A129F) above, with F101A, F207A counted along it
Experimental: as §2, §1

human α1 GlyR F44A = human α1 GlyR F44A (Homo sapiens, UniProt P23415, F72A); assay: cell-based; settings: for mut/wt: IC50 α1 GlyR F44A over wt
Chain of human α1 GlyR F44A (P23415 29-457 F72A): as the sequence (P23415 29-457 A129F) above, with F44A, F101A counted along it
Experimental: as §2, §1

human α1 GlyR I210A = human α1 GlyR I210A (Homo sapiens, UniProt P23415, I238A); assay: cell-based
Chain of human α1 GlyR I210A (P23415 29-457 I238A): as the sequence (P23415 29-457 A129F) above, with F101A, I210A counted along it
Experimental: as §2, §1

human α1 GlyR L127A = human α1 GlyR L127A (Homo sapiens, UniProt P23415, L155A); assay: cell-based; settings: for mut/wt: IC50 α1 GlyR L127A over wt
Chain of human α1 GlyR L127A (P23415 29-457 L155A): as the sequence (P23415 29-457 A129F) above, with F101A, L127A counted along it
Experimental: as §2, §1

human α1 GlyR Q177A = human α1 GlyR Q177A (Homo sapiens, UniProt P23415, Q205A); assay: cell-based; settings: for mut/wt: IC50 α1 GlyR Q177A over wt
Chain of human α1 GlyR Q177A (P23415 29-457 Q205A): as the sequence (P23415 29-457 A129F) above, with F101A, Q177A counted along it
Experimental: as §2, §1

human α1 GlyR Q67A = human α1 GlyR Q67A (Homo sapiens, UniProt P23415, Q95A); assay: cell-based; settings: for mut/wt: IC50 α1 GlyR Q67A over wt
Chain of human α1 GlyR Q67A (P23415 29-457 Q95A): as the sequence (P23415 29-457 A129F) above, with Q67A, F101A counted along it
Experimental: as §2, §1

human α1 GlyR S129A = human α1 GlyR S129A (Homo sapiens, UniProt P23415, S157A); assay: cell-based; settings: for mut/wt: IC50 α1 GlyR S129A over wt
Chain of human α1 GlyR S129A (P23415 29-457 S157A): as the sequence (P23415 29-457 A129F) above, with F101A, S129A counted along it
Experimental: as §2, §1

human α1 GlyR S158A = human α1 GlyR S158A (Homo sapiens, UniProt P23415, S186A); assay: cell-based; settings: for mut/wt: IC50 α1 GlyR S158A over wt
Chain of human α1 GlyR S158A (P23415 29-457 S186A): as the sequence (P23415 29-457 A129F) above, with F101A, S158A counted along it
Experimental: as §2, §1

human α1 GlyR wt = human α1 GlyR wt (Homo sapiens, UniProt P23415); assay: cell-based
Chain of human α1 GlyR wt (P23415 29-457): as the sequence (P23415 29-457 A129F) above, with F101A counted along it
Experimental: as §2, §1

α1 GlyR F63A [1] = settings: IC50 α1 GlyR F63A (ref 23) over wt
α1 GlyR R65A [2] = settings: IC50 α1 GlyR R65A (ref 23) over wt
human α1 GlyR = settings: taken from previous study; cited from earlier work
α1 GlyR F63A [3] = settings: ref Grudzinska et al. 23; cited from earlier work
α1 GlyR R65A [4] = settings: ref Grudzinska et al. 23; cited from earlier work

Chain of Ls-AChBP (P58154 20-229): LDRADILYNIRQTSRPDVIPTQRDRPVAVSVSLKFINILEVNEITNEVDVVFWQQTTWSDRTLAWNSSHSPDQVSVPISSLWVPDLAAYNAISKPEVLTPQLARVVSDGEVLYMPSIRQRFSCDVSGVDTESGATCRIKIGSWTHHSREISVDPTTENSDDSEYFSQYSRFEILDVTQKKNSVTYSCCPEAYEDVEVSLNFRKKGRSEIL

COc1cc2c3cc1Oc1cc(ccc1O)C[C@@H]1c4c(cc(OC)c(O)c4Oc4ccc(cc4)C[C@@H]3N(C)CC2)CC[N+]1(C)C [d-tubocurarine] gave a Ki (Ls-AChBP) of 0.171 ± 0.0183 µM, a Ki (human α7 nAChR; competition with 3H-methyllycaconitine, human α7 nAChR, read-out: Ki) of 2.98 µM and an IC50 (human α7 nAChR wt) of 1.19 ± 0.17 µM. It also gave an IC50 (human α7 nAChR Y93A) of 7.81 ± 0.98 µM, an IC50 (human α7 nAChR S148A) of 176 ± 10.8 µM and an IC50 (human α7 nAChR E193A) of 8.1 ± 0.68 µM. For the same compound, the IC50 (human α7 nAChR S36A) was 2.25 ± 0.52 µM, the IC50 (human α7 nAChR W55A) was 16.7 ± 0.94 µM and the IC50 (human α7 nAChR Q117A) was 2.28 ± 0.14 µM. For the same compound, the IC50 (human α7 nAChR L119A) was 9.19 ± 2.16 µM, the IC50 (human α7 nAChR G167A) was “significant decrease in the IC50-values” and the IC50 (human α7 nAChR G167A; read-out: IC50) was 0.043 ± 0.002 µM. The Ki (mouse 5-HT3R) was 0.138 ± 0.022 µM, the “difference in affinity between the two binding sites” value (muscle-type nAChR) was 100 fold and the “difference in affinity between human and mouse 5-HT3R” value (5-HT3R) was “more than 1,000 fold”.

O=C1C[C@@H]2OCC=C3CN4CC[C@]56c7ccccc7N1[C@H]5[C@H]2[C@H]3C[C@H]46 [strychnine] gave a Ki (Ls-AChBP) of 0.224 ± 0.0263 µM, a Ki (human α7 nAChR) of 4.85 µM and an IC50 (human α1 GlyR A101F) of 0.583 ± 0.0476 µM. It also gave a mut/wt (human α1 GlyR A101F) of about 10, a mut/wt (human α1 GlyR A101F; listed as Strychnine) of 12 and an IC50 (human α1 GlyR F207A) of 5590 ± 1890 µM. The mut/wt (human α1 GlyR F207A; IC50 α1 GlyR F207A over wt) was 119,444, the IC50 (human α1 GlyR F44A) was 0.13 ± 0.00406 µM and the mut/wt (human α1 GlyR F44A) was 3. It also gave a mut/wt (human α1 GlyR F44A; listed as Strychnine) of 2.8, an IC50 (human α1 GlyR I210A) of 0.103 ± 0.019 µM and a mut/wt (human α1 GlyR I210A; IC50 α1 GlyR I210A over wt) of 2.2. It also gave an IC50 (human α1 GlyR L127A) of 0.376 ± 0.0692 µM, a mut/wt (human α1 GlyR L127A) of about 10 and a mut/wt (human α1 GlyR L127A; listed as Strychnine) of 8. For the same compound, the IC50 (human α1 GlyR Q177A) was 0.00336 ± 0.00063 µM, the mut/wt (human α1 GlyR Q177A) was “apparent increase in strychnine-potency” and the mut/wt (human α1 GlyR Q177A; listed as Strychnine) was 0.1. The IC50 (human α1 GlyR Q177A; α1 GlyR Q177A, co-applied with EC50 glycine) was “significant decrease in the IC50-values”, the IC50 (human α1 GlyR Q67A) was 0.689 ± 0.176 µM and the mut/wt (human α1 GlyR Q67A) was 15. It also gave a mut/wt (human α1 GlyR Q67A; listed as Strychnine) of 14.7, an IC50 (human α1 GlyR S129A) of 0.358 ± 0.144 µM and a mut/wt (human α1 GlyR S129A) of about 10. The mut/wt (human α1 GlyR S129A; listed as Strychnine) was 8, the IC50 (human α1 GlyR S158A) was 13.8 µM and the mut/wt (human α1 GlyR S158A) was 300. For the same compound, the mut/wt (human α1 GlyR S158A; listed as Strychnine) was 294, the IC50 (human α1 GlyR wt) was 0.0468 ± 0.00875 µM and the mut/wt (α1 GlyR F63A [1]) was 250. It also gave a mut/wt (α1 GlyR F63A [1]; listed as Strychnine) of 256, a mut/wt (α1 GlyR R65A [2]) of 3 and a mut/wt (α1 GlyR R65A [2]; listed as Strychnine) of 3.4. For the same compound, the Ki (human α1 GlyR) was 0.016 ± 0.002 µM, the IC50 (α1 GlyR F63A [3]) was 12 µM and the IC50 (α1 GlyR R65A [4]) was 0.16 ± 0.05 µM.
